Some test systems named below: HCT-116; RXF 393; IGROV-1; CAKI-1; OVCAR-8; NCI/ADR-RES; T47D; Hs-578T; OVCAR-5; SF-539; COLO 205; OVCAR-3; A549; MDA-N; PC-3; SK-MEL-2; NCI-H460; ACHN; HCT-15; NCI-H522.
Common to all, as to test: NCI anticancer screen, dose series, 48 h

Data on eleven compounds can be found in ChEMBL document CHEMBL1201862, “PubChem BioAssay data set” (2004).

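Compound exposure: 48 hours, 5 concentrations, 96-well plates. GI50 is the concentration that inhibits growth by half.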 Active and inactive are the calls of the source. No stated cut-off is given here; in the data, active = GI50 up to about 1.1 µM and inactive = higher.

Take `OC1(c2ccc(Cl)cc2)c2c(c3ccccc3c3ccccc23)C2=NCCN21` (configuration not stated): the GI50 is 10.9 µM (inactive) in the assay on HCT-116; 11.4 µM (inactive) with RXF 393; 3.96 µM (inactive) in the assay with IGROV-1; 19.4 µM (inactive) in the assay on CAKI-1; 11.9 µM (inactive) in the assay with OVCAR-8; 11.5 µM (inactive) in the assay with NCI/ADR-RES. The GI50 in the assay with T47D is 15.4 µM (inactive); in the assay with Hs-578T, 4.58 µM (inactive); in the assay on OVCAR-5 it was 17 µM (inactive); in the assay on SF-539 it was 11.2 µM (inactive); in the assay with COLO 205, 28.2 µM (inactive); in the assay with OVCAR-3 it was 23.8 µM (inactive). The GI50 with A549 is 9.14 µM (inactive); with MDA-N, 19.8 µM (inactive); in the assay on PC-3, 14.6 µM (inactive); with SK-MEL-2, 18.7 µM (inactive); with NCI-H460, 15.8 µM (inactive); in the assay on ACHN, 14.5 µM (inactive). The same compound showed a GI50 in the assay with HCT-15 of 24.3 µM.
As to `CC(C)=CCC1=C(OCC(=O)O)C(=O)c2ccccc2C1=O`, the GI50 in the assay with HCT-116 was 22.6 µM (inactive); in the assay on RXF 393 it was 31.9 µM (inactive); in the assay on IGROV-1, 39.1 µM (inactive); with CAKI-1, 52.5 µM (inactive); in the assay on OVCAR-8 it was 38.5 µM (inactive); with NCI/ADR-RES it was 32.1 µM (inactive). The GI50 was 31.5 µM (inactive) in the assay with T47D; 23.6 µM (inactive) in the assay with NCI-H522; 22.2 µM (inactive) in the assay on Hs-578T; 27.2 µM (inactive) with SF-539; 60.3 µM (inactive) in the assay with COLO 205; 30.8 µM (inactive) with A549. Besides, the GI50 was 17.9 µM (inactive) in the assay on MDA-N; 31.3 µM (inactive) in the assay on PC-3; 25.7 µM (inactive) in the assay with SK-MEL-2; 34.5 µM (inactive) in the assay with NCI-H460; 39.4 µM (inactive) in the assay with ACHN; 39.4 µM in the assay on HCT-15.
Consider `N=C(Nc1nc(-c2ccccn2)cc2ccccc12)c1ccccn1`, for which the GI50 with HCT-116 was 0.01 µM (active); in the assay on RXF 393 it was 0.0168 µM (active); with IGROV-1, 0.0322 µM (active); in the assay on CAKI-1, < 0.0123 µM (active); in the assay on OVCAR-8, < 0.0179 µM (active); in the assay with NCI/ADR-RES, < 0.0185 µM (active). In addition, the GI50 is 0.0244 µM (active) with T47D; 0.0398 µM (active) in the assay on NCI-H522; 1.61 µM (inactive) with Hs-578T; 0.0148 µM (active) with OVCAR-5; 0.097 µM (active) in the assay with SF-539; 0.011 µM (active) with COLO 205. The GI50 was 0.01 µM (active) with OVCAR-3; 0.0733 µM (active) in the assay with A549; 0.272 µM (active) in the assay on MDA-N; < 0.0129 µM (active) in the assay with PC-3; 0.0857 µM (active) with NCI-H460; < 0.0145 µM (active) in the assay on ACHN. Moreover, the GI50 with HCT-15 is 0.0149 µM.
As for `CCOC(=O)C(COS(C)(=O)=O)(COS(C)(=O)=O)C(=O)OCC`, the GI50 with HCT-116, in the assay on RXF 393, in the assay on OVCAR-8, with NCI/ADR-RES, in the assay with T47D and with NCI-H522 was > 100 µM (inactive) each time. Further, the GI50 in the assay with Hs-578T, with COLO 205, in the assay on OVCAR-3, in the assay with A549, with MDA-N and in the assay on PC-3 was > 100 µM (inactive) throughout. In addition, the figures for the GI50 in the assay on NCI-H460, in the assay on ACHN and in the assay on HCT-15 were > 100 µM (inactive), > 100 µM (inactive) and > 100 µM, respectively.
As to `Clc1ccc2oc(CCC3CCCCC3)nc2c1`, the GI50 in the assay on HCT-116 is 31.4 µM (inactive); in the assay with RXF 393, 15.1 µM (inactive); in the assay with CAKI-1, 24.7 µM (inactive); in the assay on OVCAR-8, 44.1 µM (inactive); in the assay with NCI/ADR-RES, 30.3 µM (inactive); with T47D, 20.5 µM (inactive). Also, the GI50 was 21.9 µM (inactive) in the assay on NCI-H522; 91.2 µM (inactive) with Hs-578T; 33.3 µM (inactive) with OVCAR-5; 32.1 µM (inactive) in the assay with SF-539; 21.4 µM (inactive) with COLO 205; 15.6 µM (inactive) with OVCAR-3. Moreover, the GI50 is 31.6 µM (inactive) in the assay on A549; 33.3 µM (inactive) in the assay on MDA-N; 33 µM (inactive) in the assay on PC-3; 19.1 µM (inactive) in the assay with SK-MEL-2; 24.9 µM (inactive) in the assay with NCI-H460; 40.6 µM (inactive) in the assay with ACHN. In the assay on HCT-15, this compound showed a GI50 of 24.7 µM.
In the case of `CNc1cc(Cl)ccc1C(=O)N1CCC[C@H]1CO`, the GI50 in the assay on HCT-116, with RXF 393, with IGROV-1, in the assay with CAKI-1, in the assay with OVCAR-8 and in the assay with NCI/ADR-RES was > 100 µM (inactive) in each case. Also, the GI50 in the assay on T47D, in the assay on NCI-H522, in the assay with Hs-578T, in the assay on OVCAR-5, in the assay on SF-539 and in the assay on COLO 205 was > 100 µM (inactive) in each case. Further, the GI50 was > 100 µM (inactive) with A549; 97.1 µM (inactive) with MDA-N; > 100 µM (inactive) in the assay on PC-3; > 100 µM (inactive) with SK-MEL-2; > 100 µM (inactive) in the assay with ACHN; > 100 µM in the assay with HCT-15.
Consider `Cc1n[nH]c(=O)n1-c1cccnc1`, for which the GI50 with HCT-116, in the assay on RXF 393, in the assay with IGROV-1, in the assay with CAKI-1, with OVCAR-8 and in the assay with NCI/ADR-RES was > 100 µM (inactive) each time. Also, the GI50 in the assay with T47D, with NCI-H522, with Hs-578T, with OVCAR-5, with SF-539 and in the assay with COLO 205 was > 100 µM (inactive) in each case. Also, the GI50 in the assay with OVCAR-3, in the assay with A549, in the assay with MDA-N, in the assay with PC-3, in the assay with NCI-H460 and in the assay on ACHN was > 100 µM (inactive) in each case. For the same compound, in the assay with HCT-15, the GI50 is > 100 µM.
As for `CC(=O)O[C@H]1CC[C@@]2(C)C(=CC[C@@H]3[C@@H]2CC[C@]2(C)Nc4c(cnn4S(C)(=O)=O)C[C@@H]32)C1`, the GI50 in the assay on RXF 393 was 18.1 µM (inactive); in the assay on IGROV-1, 97.1 µM (inactive); with CAKI-1, 49.9 µM (inactive); in the assay on OVCAR-8, > 100 µM (inactive); with NCI/ADR-RES, > 100 µM (inactive); in the assay on T47D it was 36.1 µM (inactive). In addition, the GI50 in the assay on NCI-H522 was 41.1 µM (inactive); in the assay on Hs-578T, 62.4 µM (inactive); in the assay on OVCAR-5 it was 38.2 µM (inactive); in the assay on COLO 205, 69 µM (inactive); in the assay with OVCAR-3, 48 µM (inactive); with MDA-N it was 60.1 µM (inactive). The GI50 is 39.1 µM (inactive) with PC-3, > 100 µM (inactive) in the assay on SK-MEL-2, 44.4 µM (inactive) in the assay with NCI-H460 and 43.6 µM in the assay with HCT-15.
Turning to `CCN(CC)Cc1ccc(C(=S)Nc2ccc(Cl)cc2)s1`, the GI50 with HCT-116 is 10.5 µM (inactive); in the assay with IGROV-1, 11.4 µM (inactive); with CAKI-1, 12.7 µM (inactive); in the assay on OVCAR-8, 3.75 µM (inactive); in the assay on NCI/ADR-RES, 7.45 µM (inactive); with T47D it was 11.2 µM (inactive). Further, the GI50 with NCI-H522 was 11.4 µM (inactive); in the assay with Hs-578T, 10.4 µM (inactive); in the assay on OVCAR-5 it was 11.3 µM (inactive); in the assay with SF-539 it was 13.9 µM (inactive); in the assay with COLO 205 it was 1.99 µM (inactive); with OVCAR-3 it was 15.3 µM (inactive). For the same compound, the GI50 with A549 was 11.2 µM (inactive); with MDA-N, 10.7 µM (inactive); in the assay with PC-3, 13.2 µM (inactive); with SK-MEL-2, 15.1 µM (inactive); with NCI-H460, 11.9 µM (inactive); in the assay with ACHN, 14.2 µM (inactive). In the assay with HCT-15, the GI50 is 10.7 µM.
With `COc1cc(OC)cc(C(=O)CC(=O)c2cc(OC)cc(OC)c2)c1`, the GI50 with HCT-116 is 69.2 µM (inactive); with RXF 393, > 100 µM (inactive); with IGROV-1 it was > 100 µM (inactive); in the assay with OVCAR-8, > 100 µM (inactive); in the assay with NCI/ADR-RES it was > 100 µM (inactive); with T47D, > 100 µM (inactive). Moreover, the GI50 in the assay on Hs-578T, with OVCAR-5, in the assay on SF-539, in the assay with COLO 205, in the assay on OVCAR-3 and in the assay with A549 was > 100 µM (inactive) throughout. Also, the GI50 in the assay with MDA-N is > 100 µM (inactive); in the assay with PC-3, 94.4 µM (inactive); with NCI-H460, 56.9 µM (inactive); with ACHN it was > 100 µM (inactive); with HCT-15, 68.9 µM.
With `O=c1cnn(C/C=C/CO)c(=O)[nH]1`, the GI50 in the assay with RXF 393, in the assay with IGROV-1, with CAKI-1, in the assay with OVCAR-8, in the assay on NCI/ADR-RES and in the assay with T47D was > 100 µM (inactive) each time. The GI50 in the assay with NCI-H522, in the assay on Hs-578T, in the assay with OVCAR-5, in the assay with COLO 205, in the assay on OVCAR-3 and in the assay with A549 was > 100 µM (inactive) in each case. The GI50 in the assay on MDA-N is > 100 µM (inactive); with PC-3, > 100 µM (inactive); with SK-MEL-2 it was > 100 µM (inactive); with NCI-H460 it was > 100 µM (inactive); with ACHN, > 100 µM (inactive); with HCT-15, > 100 µM.
